Data taken from patent publication EP1976513B1 (priority 2006, dated 2007).
Where “and” joins values, the source holds several entries; their conditions need not be identical. Identical values can stand only once. Like-named read-outs stand apart in the source and are kept apart here.

Experiments:
mice [1] = assay: Mouse locomotor activity; format: in vivo; conditions: PO
Description: (§1) In order to ensure effects of the compounds on immobility time were not related to a general stimulant effect on baseline motor activity, locomotor activity was assessed using photocell monitored cages (Med-Associates Inc.). Each test chamber was equipped with infrared photocell beams to measure movement of the animals. Horizontal and vertical activity were measured
(§2) Rats or mice were pretreated with vehicle or test compounds and placed back in home cage, following which they will be individually placed in locomotor cages and activity was monitored in 5 minute intervals for up to 60 min.
(§3) Data were analyzed by one way analysis of variance (ANOVA) followed by post-hoc comparisons where appropriate. An effect was considered significant if p < 0.05. Data are represented as the mean and standard error to the mean (s.e.m).

dopamine transporter = target: T1, dopamine transporter (Rattus norvegicus, UniProt P23977); assay: biochemical; conditions: rat synaptosomes, dopamine transporter (DAT)
T1 construct: synaptosomes isolated in a 0.32 M sucrose buffer from a male Wistar rat striatum; from tissue; host or cells: male Wistar rat striatum synaptosomes

mice [2] = assay: Mouse tail suspension test; format: in vivo; conditions: PO, 30-60 minutes before the test, 5 minutes recording
Rats [3] = assay: Rat locomotor activity; format: in vivo; conditions: PO
Description: as §1, §2, §3

[4] = target: T2, 5-HT Transporter (SERT) Sites in Mouse Brain (Mus musculus, UniProt Q60857); assay: Ex vivo [3H] citalopram binding after oral dosing; design: species or system C57BL/6 mice; conditions: for % Transporter Occupancy, SERT: 60 minutes after treatment, vs vehicle; for Mean Specific Binding (dpm) ± S.E.M., SERT: mice sacrificed 60 minutes after treatment, cortex
T2 construct: Whole brains were removed and cortex and striata dissected out; from tissue; host or cells: C57BL/6 mouse frontal cortex homogenate

Rats [5] = assay: Rat forced swim test; format: in vivo; conditions: PO, 24 hours and 30-60 minutes before the 5 minute test
[6] = target: T3, DA Transporter (DAT) Sites in Mouse Brain (Mus musculus, UniProt Q61327); assay: Ex vivo [3H] WIN 35428 binding after oral dosing; design: species or system C57BL/6 mice; conditions: for % Transporter Occupancy, DAT: 60 minutes after treatment, vs vehicle; for Mean Specific Binding (dpm) ± S.E.M., DAT: mice sacrificed 60 minutes after treatment, striatum
T3 construct: Striatum was used to determine occupancy of DA transporter sites; from tissue; host or cells: C57BL/6 mouse striatum homogenate

[7] = target: Norepinephrine Transporter (NET) Sites in Mouse Brain (Mus musculus, UniProt O55192); conditions: PO; for % Transporter Occupancy, NET: 60 minutes after treatment, vs vehicle; for Mean Specific Binding (dpm) ± S.E.M., NET: mice sacrificed 60 minutes after treatment, cortex
[8] = target: human serotonin reuptake transporter (Homo sapiens, UniProt P31645); assay: cell-based; conditions: recombinant human serotonin transporter (SERT); read-out: Human IC50 (nM) hSERT
[9] = target: T4, human dopamine reuptake transporter (Homo sapiens, UniProt Q01959); assay: cell-based; conditions: recombinant human dopamine transporter (DAT); read-out: Human IC50 (nM) hDAT
T4 construct: expressed in transfected cells; host or cells: CHO-K1 or HEK293

serotonin transporter = target: T5, serotonin transporter (Rattus norvegicus, UniProt P31652); assay: biochemical; conditions: rat synaptosomes, serotonin transporter (SERT)
T5 construct: synaptosomes isolated in a 0.32M sucrose buffer from a male Wistar rat cortex; from tissue; host or cells: male Wistar rat cortex synaptosomes
T5 sequence (P31652 whole entry): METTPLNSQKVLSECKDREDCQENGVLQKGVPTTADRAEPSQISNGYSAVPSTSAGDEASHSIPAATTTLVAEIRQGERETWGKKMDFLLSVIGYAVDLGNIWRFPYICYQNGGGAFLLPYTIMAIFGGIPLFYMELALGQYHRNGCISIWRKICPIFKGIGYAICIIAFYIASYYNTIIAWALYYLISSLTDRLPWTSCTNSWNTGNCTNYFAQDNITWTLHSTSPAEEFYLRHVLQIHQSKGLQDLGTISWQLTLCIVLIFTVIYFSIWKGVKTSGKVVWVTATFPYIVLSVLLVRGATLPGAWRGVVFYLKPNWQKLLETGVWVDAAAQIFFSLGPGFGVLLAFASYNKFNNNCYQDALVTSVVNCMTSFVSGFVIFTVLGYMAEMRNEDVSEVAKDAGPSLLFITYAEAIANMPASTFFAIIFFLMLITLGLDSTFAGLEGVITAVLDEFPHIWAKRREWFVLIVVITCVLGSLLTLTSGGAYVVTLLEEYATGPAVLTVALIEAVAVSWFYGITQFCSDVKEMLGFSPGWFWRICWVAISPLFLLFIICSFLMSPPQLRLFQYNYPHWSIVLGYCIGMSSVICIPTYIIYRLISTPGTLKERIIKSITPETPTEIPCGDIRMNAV

Norepinephrine Transporter (NET) Sites in Mouse Brain, sequence (O55192 whole entry): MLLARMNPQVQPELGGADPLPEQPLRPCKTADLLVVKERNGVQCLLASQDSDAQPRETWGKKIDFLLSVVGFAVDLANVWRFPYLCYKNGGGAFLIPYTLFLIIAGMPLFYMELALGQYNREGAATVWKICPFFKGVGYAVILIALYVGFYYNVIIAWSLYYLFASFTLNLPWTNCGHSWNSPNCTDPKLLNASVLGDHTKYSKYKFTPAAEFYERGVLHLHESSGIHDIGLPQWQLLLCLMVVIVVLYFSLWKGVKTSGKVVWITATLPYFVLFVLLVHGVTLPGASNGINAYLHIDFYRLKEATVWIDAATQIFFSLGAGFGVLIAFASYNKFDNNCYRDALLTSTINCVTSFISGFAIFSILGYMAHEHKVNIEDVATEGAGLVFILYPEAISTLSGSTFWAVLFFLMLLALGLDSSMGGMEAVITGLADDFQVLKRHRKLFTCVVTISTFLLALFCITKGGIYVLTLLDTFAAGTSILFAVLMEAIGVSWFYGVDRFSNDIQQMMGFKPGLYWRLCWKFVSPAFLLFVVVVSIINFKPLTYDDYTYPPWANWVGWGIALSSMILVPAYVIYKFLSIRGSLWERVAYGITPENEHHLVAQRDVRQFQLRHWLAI
human serotonin reuptake transporter, sequence (P31645 whole entry): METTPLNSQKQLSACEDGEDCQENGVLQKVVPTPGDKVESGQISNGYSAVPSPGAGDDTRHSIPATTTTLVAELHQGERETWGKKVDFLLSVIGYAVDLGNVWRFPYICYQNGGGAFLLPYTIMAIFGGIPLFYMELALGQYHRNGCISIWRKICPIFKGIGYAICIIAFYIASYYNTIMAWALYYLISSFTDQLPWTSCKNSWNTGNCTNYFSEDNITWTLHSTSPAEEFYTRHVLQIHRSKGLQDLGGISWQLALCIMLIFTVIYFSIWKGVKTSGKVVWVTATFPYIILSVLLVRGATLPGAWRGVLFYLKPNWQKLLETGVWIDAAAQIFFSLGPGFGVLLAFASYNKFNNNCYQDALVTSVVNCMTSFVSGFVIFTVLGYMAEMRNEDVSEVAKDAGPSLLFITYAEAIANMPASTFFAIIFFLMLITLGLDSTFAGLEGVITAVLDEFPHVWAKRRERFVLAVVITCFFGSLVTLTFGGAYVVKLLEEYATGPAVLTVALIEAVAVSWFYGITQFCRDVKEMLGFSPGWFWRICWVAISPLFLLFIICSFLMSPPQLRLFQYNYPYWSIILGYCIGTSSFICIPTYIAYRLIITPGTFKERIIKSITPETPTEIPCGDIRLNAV
T1 sequence (P23977 whole entry): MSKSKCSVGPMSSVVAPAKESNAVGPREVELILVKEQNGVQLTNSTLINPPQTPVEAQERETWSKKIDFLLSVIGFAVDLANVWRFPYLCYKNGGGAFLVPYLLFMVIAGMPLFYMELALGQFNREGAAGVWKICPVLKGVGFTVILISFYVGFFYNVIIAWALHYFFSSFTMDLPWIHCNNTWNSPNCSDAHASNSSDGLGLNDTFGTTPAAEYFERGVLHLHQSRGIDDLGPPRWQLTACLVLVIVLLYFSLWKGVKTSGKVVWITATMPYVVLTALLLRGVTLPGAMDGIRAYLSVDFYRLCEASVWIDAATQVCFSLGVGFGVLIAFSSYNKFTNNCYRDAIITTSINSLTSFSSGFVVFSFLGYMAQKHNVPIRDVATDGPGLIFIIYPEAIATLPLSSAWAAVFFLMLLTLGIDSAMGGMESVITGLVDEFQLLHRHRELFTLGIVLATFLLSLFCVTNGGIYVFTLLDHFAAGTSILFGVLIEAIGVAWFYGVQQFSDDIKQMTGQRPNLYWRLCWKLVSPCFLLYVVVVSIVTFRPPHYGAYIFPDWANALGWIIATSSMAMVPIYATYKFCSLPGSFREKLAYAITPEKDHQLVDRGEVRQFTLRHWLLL
T3 sequence (Q61327 whole entry): as the sequence (P23977 whole entry) above, with S21P, A57V, A194S, H600R, L619V counted along it
T2 sequence (Q60857 whole entry): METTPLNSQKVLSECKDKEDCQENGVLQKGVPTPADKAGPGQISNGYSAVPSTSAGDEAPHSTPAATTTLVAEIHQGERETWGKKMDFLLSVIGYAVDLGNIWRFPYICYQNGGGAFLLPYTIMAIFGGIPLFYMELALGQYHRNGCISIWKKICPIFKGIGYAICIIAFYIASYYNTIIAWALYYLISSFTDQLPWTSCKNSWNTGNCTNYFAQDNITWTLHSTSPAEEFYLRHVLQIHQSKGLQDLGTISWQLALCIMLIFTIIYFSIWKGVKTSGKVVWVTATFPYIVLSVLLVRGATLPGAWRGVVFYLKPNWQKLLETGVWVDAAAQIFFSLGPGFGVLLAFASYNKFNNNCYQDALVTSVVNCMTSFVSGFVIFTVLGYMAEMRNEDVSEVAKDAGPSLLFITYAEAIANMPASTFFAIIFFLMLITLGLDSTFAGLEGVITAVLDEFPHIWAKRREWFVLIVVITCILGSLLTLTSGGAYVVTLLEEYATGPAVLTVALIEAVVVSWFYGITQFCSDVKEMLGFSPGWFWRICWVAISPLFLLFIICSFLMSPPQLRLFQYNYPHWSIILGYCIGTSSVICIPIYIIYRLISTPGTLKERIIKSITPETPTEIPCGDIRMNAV
T4 sequence (Q01959 whole entry): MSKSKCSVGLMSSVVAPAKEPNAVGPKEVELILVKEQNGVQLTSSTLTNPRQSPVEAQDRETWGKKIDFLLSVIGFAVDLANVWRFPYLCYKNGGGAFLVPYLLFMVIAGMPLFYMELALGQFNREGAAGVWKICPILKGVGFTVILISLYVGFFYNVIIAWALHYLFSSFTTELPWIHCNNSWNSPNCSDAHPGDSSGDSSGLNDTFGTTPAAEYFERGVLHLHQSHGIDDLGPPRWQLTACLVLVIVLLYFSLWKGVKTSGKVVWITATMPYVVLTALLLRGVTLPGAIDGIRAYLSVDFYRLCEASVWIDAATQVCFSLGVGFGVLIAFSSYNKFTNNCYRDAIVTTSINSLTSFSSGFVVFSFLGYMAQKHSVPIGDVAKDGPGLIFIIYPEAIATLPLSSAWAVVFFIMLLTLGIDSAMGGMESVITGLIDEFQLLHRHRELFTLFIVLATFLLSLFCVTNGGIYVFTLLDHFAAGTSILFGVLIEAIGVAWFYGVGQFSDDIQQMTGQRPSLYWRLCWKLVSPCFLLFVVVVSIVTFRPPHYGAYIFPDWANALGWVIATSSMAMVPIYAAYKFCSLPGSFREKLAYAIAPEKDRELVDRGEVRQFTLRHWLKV

Structure (SMILES): CNCC1(c2ccc(Cl)c(Cl)c2)CCCCC1.Cl [Compound 75, 1-(1-(3,4-dichlorophenyl)cyclohexyl)-N-methylmethanamine (hydrochloride)]
- Mouse Locomotor Activity Total Distance Traveled ± S.E.M. (mice [1]; 3 mg/kg): 653.5 ± 48.4
- Mouse Locomotor Activity Total Distance Traveled ± S.E.M. (mice [1]; 10 mg/kg): 608.8 ± 83.4
- Mouse Locomotor Activity Total Distance Traveled ± S.E.M. (mice [1]; 30 mg/kg): 655.3 ± 117.7
- IC50 (dopamine transporter; Rat IC50 (nM) rDAT): 58 nM
- Mouse Tail Suspension Mean Immobility Time ± S.E.M. (mice [2]; 3 mg/kg): 187.8 ± 9.6
- Mouse Tail Suspension Mean Immobility Time ± S.E.M. (mice [2]; 10 mg/kg): 177.7 ± 5.8
- Mouse Tail Suspension Mean Immobility Time ± S.E.M. (mice [2]; 30 mg/kg): 143.5 ± 5.8

Structure (SMILES): CN(C)C[C@]1(c2ccc3ccccc3c2)CC[C@](C)(O)CC1 [Compound 225, 4-((dimethylamino)methyl)-1-methyl-4-(naphthalen-2-yl)cyclohexanol]
- Rat Locomotor Activity Total Distance Traveled ± S.E.M. (Rats [3]; 3 mg/kg): 1783.4 ± 182.7
- Rat Locomotor Activity Total Distance Traveled ± S.E.M. (Rats [3]; 10 mg/kg): 1628.5 ± 159.2
- Rat Locomotor Activity Total Distance Traveled ± S.E.M. (Rats [3]; 30 mg/kg): 2182.8 ± 151.2
- Mouse Locomotor Activity Total Distance Traveled ± S.E.M. (mice [1]; 0.3 mg/kg): 519.5 ± 56.4
- Mouse Locomotor Activity Total Distance Traveled ± S.E.M. (mice [1]; 1 mg/kg): 423.4 ± 62.3
- Mouse Locomotor Activity Total Distance Traveled ± S.E.M. (mice [1]; 10 mg/kg): 234.2 ± 49.4
- Mouse Locomotor Activity Total Distance Traveled ± S.E.M. (mice [1]; 30 mg/kg): 177.4 ± 47.8
- % Transporter Occupancy, SERT ([4]; 1 mg/kg): 17%
- Mean Specific Binding (dpm) ± S.E.M., SERT ([4]; 1 mg/kg): 3842 ± 152 dpm
- % Transporter Occupancy, SERT ([4]; 3 mg/kg): 54%
- Mean Specific Binding (dpm) ± S.E.M., SERT ([4]; 3 mg/kg): 2118 ± 139 dpm
- % Transporter Occupancy, SERT ([4]; 10 mg/kg): 81%
- Mean Specific Binding (dpm) ± S.E.M., SERT ([4]; 10 mg/kg): 904 ± 35 dpm
- % Transporter Occupancy, SERT ([4]; 30 mg/kg): 91%
- Mean Specific Binding (dpm) ± S.E.M., SERT ([4]; 30 mg/kg): 414 ± 37 dpm
- Rat Forced Swim (Means ± S.E.M.) Climbing (Rats [5]; 3 mg/kg): 8.4 ± 1.7
- Rat Forced Swim (Means ± S.E.M.) Immobility (Rats [5]; 3 mg/kg): 50.8 ± 1.8
- Rat Forced Swim (Means ± S.E.M.) Climbing (Rats [5]; 10 mg/kg): 11.1 ± 2.7
- Rat Forced Swim (Means ± S.E.M.) Immobility (Rats [5]; 10 mg/kg): 47.6 ± 3.0
- Rat Forced Swim (Means ± S.E.M.) Swimming (Rats [5]; 10 mg/kg): 1.2 ± 0.6
- Rat Forced Swim (Means ± S.E.M.) Climbing (Rats [5]; 30 mg/kg): 25.0 ± 4.6
- Rat Forced Swim (Means ± S.E.M.) Immobility (Rats [5]; 30 mg/kg): 33.4 ± 4.8
- Rat Forced Swim (Means ± S.E.M.) Swimming (Rats [5]; 30 mg/kg): 1.1 ± 0.5
- Mouse Tail Suspension Mean Immobility Time ± S.E.M. (mice [2]; 0.3 mg/kg): 188.1 ± 8.0
- Mouse Tail Suspension Mean Immobility Time ± S.E.M. (mice [2]; 1 mg/kg): 186.5 ± 5.2
- Mouse Tail Suspension Mean Immobility Time ± S.E.M. (mice [2]; 3 mg/kg): 158.5 ± 4.9 and 155.2 ± 6.0
- Mouse Tail Suspension Mean Immobility Time ± S.E.M. (mice [2]; 10 mg/kg): 137.8 ± 5.2
- Mouse Tail Suspension Mean Immobility Time ± S.E.M. (mice [2]; 30 mg/kg): 136.3 ± 2.5
- % Transporter Occupancy, DAT ([6]; 1 mg/kg): 3%
- Mean Specific Binding (dpm) ± S.E.M., DAT ([6]; 1 mg/kg): 19787 ± 3338 dpm
- % Transporter Occupancy, DAT ([6]; 3 mg/kg): -6%
- Mean Specific Binding (dpm) ± S.E.M., DAT ([6]; 3 mg/kg): 21666 ± 3698 dpm
- % Transporter Occupancy, DAT ([6]; 10 mg/kg): 8%
- Mean Specific Binding (dpm) ± S.E.M., DAT ([6]; 10 mg/kg): 18872 ± 2775 dpm
- % Transporter Occupancy, DAT ([6]; 30 mg/kg): 29%
- Mean Specific Binding (dpm) ± S.E.M., DAT ([6]; 30 mg/kg): 14618 ± 1209 dpm
- % Transporter Occupancy, NET ([7]; 1 mg/kg): 25%
- Mean Specific Binding (dpm) ± S.E.M., NET ([7]; 1 mg/kg): 1170 ± 68 dpm
- % Transporter Occupancy, NET ([7]; 3 mg/kg): 48%
- Mean Specific Binding (dpm) ± S.E.M., NET ([7]; 3 mg/kg): 813 ± 64 dpm
- % Transporter Occupancy, NET ([7]; 10 mg/kg): 75%
- Mean Specific Binding (dpm) ± S.E.M., NET ([7]; 10 mg/kg): 393 ± 21 dpm
- % Transporter Occupancy, NET ([7]; 30 mg/kg): 85%
- Mean Specific Binding (dpm) ± S.E.M., NET ([7]; 30 mg/kg): 230 ± 33 dpm
- IC50 [8]: 7 nM

Structure (SMILES): CN(C)CC1(c2ccc(Cl)c(Cl)c2)CCC(F)CC1 (centres unmarked) [Compound 254, 1-(1-(3,4-dichlorophenyl)-4-fluorocyclohexyl)-N,N-dimethylmethanamine]
- IC50 (dopamine transporter; Rat IC50 (nM) rDAT): 100 nM
- IC50 [9]: < 1 nM
- IC50 [8]: 294 nM

Structure (SMILES): COC1CCC(CN(C)C)(c2ccc(Cl)c(Cl)c2)CC1 (centres unmarked) [Compound 256, 1-(1-(3,4-dichlorophenyl)-4-methoxycyclohexyl)-N,N-dimethylmethanamine]
- IC50 (dopamine transporter; read-out: Rat IC50 (nM) rDAT): 990 nM
- IC50 (serotonin transporter; read-out: Rat IC50 (nM) rSERT): 280 nM
- IC50 [9]: 157 nM
- IC50 [8]: 69 nM

Structure (SMILES): CN(C)CC1(c2ccc(Cl)c(Cl)c2)CCC(C)(O)CC1 (centres unmarked) [Compound 277, 4-(3,4-dichlorophenyl)-4-((dimethylamino)methyl)-1-methylcyclohexanol]
- Rat Locomotor Activity Total Distance Traveled ± S.E.M. (Rats [3]; 3 mg/kg): 1406.2 ± 84.9
- Rat Locomotor Activity Total Distance Traveled ± S.E.M. (Rats [3]; 10 mg/kg): 1861.4 ± 187.8
- Rat Locomotor Activity Total Distance Traveled ± S.E.M. (Rats [3]; 30 mg/kg): 2612.4 ± 210.8
- Mouse Locomotor Activity Total Distance Traveled ± S.E.M. (mice [1]; 3 mg/kg): 418.8 ± 80.6
- Mouse Locomotor Activity Total Distance Traveled ± S.E.M. (mice [1]; 10 mg/kg): 411.8 ± 87.8
- Mouse Locomotor Activity Total Distance Traveled ± S.E.M. (mice [1]; 30 mg/kg): 327.7 ± 67.1
- IC50 (dopamine transporter; Rat IC50 (nM) rDAT): 43 nM
- % Transporter Occupancy, SERT ([4]; 1 mg/kg): -6%
- Mean Specific Binding (dpm) ± S.E.M., SERT ([4]; 1 mg/kg): 1508 ± 86 dpm
- % Transporter Occupancy, SERT ([4]; 3 mg/kg): -5%
- Mean Specific Binding (dpm) ± S.E.M., SERT ([4]; 3 mg/kg): 1491 ± 75 dpm
- % Transporter Occupancy, SERT ([4]; 10 mg/kg): 0%
- Mean Specific Binding (dpm) ± S.E.M., SERT ([4]; 10 mg/kg): 1416 ± 43 dpm
- % Transporter Occupancy, SERT ([4]; 30 mg/kg): 3%
- Mean Specific Binding (dpm) ± S.E.M., SERT ([4]; 30 mg/kg): 1384 ± 101 dpm
- IC50 (serotonin transporter; Rat IC50 (nM) rSERT): 42 nM
- % Transporter Occupancy, DAT ([6]; 1 mg/kg): 17%
- Mean Specific Binding (dpm) ± S.E.M., DAT ([6]; 1 mg/kg): 35827 ± 2302 dpm
- % Transporter Occupancy, DAT ([6]; 3 mg/kg): 21%
- Mean Specific Binding (dpm) ± S.E.M., DAT ([6]; 3 mg/kg): 34136 ± 4104 dpm
- % Transporter Occupancy, DAT ([6]; 10 mg/kg): 23%
- Mean Specific Binding (dpm) ± S.E.M., DAT ([6]; 10 mg/kg): 33230 ± 2807 dpm
- % Transporter Occupancy, DAT ([6]; 30 mg/kg): 26%
- Mean Specific Binding (dpm) ± S.E.M., DAT ([6]; 30 mg/kg): 31743 ± 4406 dpm
- % Transporter Occupancy, NET ([7]; 1 mg/kg): 6%
- Mean Specific Binding (dpm) ± S.E.M., NET ([7]; 1 mg/kg): 950 ± 46 dpm
- % Transporter Occupancy, NET ([7]; 3 mg/kg): 18%
- Mean Specific Binding (dpm) ± S.E.M., NET ([7]; 3 mg/kg): 824 ± 30 dpm
- % Transporter Occupancy, NET ([7]; 10 mg/kg): 47%
- Mean Specific Binding (dpm) ± S.E.M., NET ([7]; 10 mg/kg): 533 ± 25 dpm
- % Transporter Occupancy, NET ([7]; 30 mg/kg): 71%
- Mean Specific Binding (dpm) ± S.E.M., NET ([7]; 30 mg/kg): 294 ± 42 dpm
- IC50 [8]: 34 nM
